Measurements taken from patent US9833497B2, “Human originated EGF domain proteins and use of the same” (CHENGDU SOURCEBIO LIMITED-LIABILITY COMPANY, priority 2013, dated 2017).

Assays:
Assay type in all cases: cell-based
[1] = tested on: E. coli DH5α; assay: Antibacterial activity: MIC and growth curve against E. coli DH5α in 96-well plate; details: minimal inhibitory concentration against E. coli DH5α; 96-well plate, 5×10^5 CFU/mL, 37° C., judged after 8 h
In short: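 MIC taken as lowest protein level with no bacterial growth, tracked by A600 every 30 min during 37 °C, 175 rpm culture. Two-fold protein series 50-12.5 μg/mL final, triplicate wells, against 5×10^5 CFU/mL of LB-washed mid-log cells.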

[2] = tested on: E. coli BL21; assay: MIC against Gram-negative bacteria: E. coli BL21
In short: (§1)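 Read-out is absence of bacterial growth, with MIC set at the lowest recombinant protein concentration achieving it. Bacteria, pre-grown in LB to McFarland 0.5 and resuspended, were exposed at 5×10^5 CFU/mL to two-fold diluted human EGF domain proteins in triplicate at 37° C, 175 rpm.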

[3] = tested on: Pseudomonas aeruginosa; assay: MIC against Gram-negative bacteria: Pseudomonas aeruginosa
In short: as §1

[4] = tested on: Klebsiella pneumonia; assay: MIC against Gram-negative bacteria: Klebsiella pneumonia
In short: as §1

[5] = tested on: Enterobacter cloacae; assay: MIC against Gram-negative bacteria: Enterobacter cloacae
In short: as §1

[6] = tested on: Aeromonas hydrophila; assay: MIC against Gram-negative bacteria: Aeromonas hydrophila
In short: as §1

[7] = tested on: Citrobacter diversus; assay: MIC against Gram-negative bacteria: Citrobacter diversus
In short: as §1

[8] = tested on: Moraxella catarrhalis; assay: MIC against Gram-negative bacteria: Moraxella catarrhalis
In short: as §1

[9] = tested on: Proteus mirabilis; assay: MIC against Gram-negative bacteria: Proteus mirabilis
In short: as §1

[10] = tested on: Proteus vulgaris; assay: MIC against Gram-negative bacteria: Proteus vulgaris
In short: as §1

[11] = tested on: Serratia marcescens; assay: MIC against Gram-negative bacteria: Serratia marcescens
In short: as §1

[12] = 96-well plate, 5×10^5 CFU/mL, 37° C., 10 h
[13] = E. coli BL21, 96-well plate, 5×10^5 CFU/mL, 37° C., 10 h
[14] = Pseudomonas aeruginosa, 96-well plate, 5×10^5 CFU/mL, 37° C., 10 h
[15] = Klebsiella pneumonia, 96-well plate, 5×10^5 CFU/mL, 37° C., 10 h
[16] = Enterobacter cloacae, 96-well plate, 5×10^5 CFU/mL, 37° C., 10 h
[17] = Aeromonas hydrophila, 96-well plate, 5×10^5 CFU/mL, 37° C., 10 h
[18] = Citrobacter diversus, 96-well plate, 5×10^5 CFU/mL, 37° C., 10 h
[19] = Moraxella catarrhalis, 96-well plate, 5×10^5 CFU/mL, 37° C., 10 h
[20] = Proteus mirabilis, 96-well plate, 5×10^5 CFU/mL, 37° C., 10 h
[21] = Proteus vulgaris, 96-well plate, 5×10^5 CFU/mL, 37° C., 10 h
[22] = Serratia marcescens, 96-well plate, 5×10^5 CFU/mL, 37° C., 10 h

PRT610 (CSCDPSGSIDECNIETGRCVCKDNVEGFNCERCKPGFFNLESSNPRGCTP; listed as Homo sapiens)
MIC [1]: 50 µg/mL
MIC E. coli BL21 [2, 12]: 25 µg/mL
MIC P. aeruginosa [3, 12]: 12.5 µg/mL
MIC K. pneumonia [4, 12]: 25 µg/mL
MIC E. cloacae [5, 12]: 50 µg/mL
MIC A. hydrophila [6, 12]: 12.5 µg/mL
MIC C. diversus [7, 12]: 50 µg/mL
MIC M. catarrhalis [8, 12]: 12.5 µg/mL
MIC P. mirabilis [9, 12]: 50 µg/mL
MIC P. vulgaris [10, 12]: 12.5 µg/mL
MIC S. marcescens [11, 12]: 50 µg/mL

PRT1022 (DIDECSEQPSVCGSHTICNNHPGTFRCECVEGYQFSDEGTCV; listed as Homo sapiens)
MIC [1]: 12.5 µg/mL
MIC ([2]; E. coli BL21, 10 h cultivation at 37° C.): 50 µg/mL
MIC ([3]; P. aeruginosa, 10 h cultivation at 37° C.): 12.5 µg/mL
MIC ([4]; K. pneumonia, 10 h cultivation at 37° C.): 25 µg/mL
MIC ([5]; E. cloacae, 10 h cultivation at 37° C.): 25 µg/mL
MIC ([6]; A. hydrophila, 10 h cultivation at 37° C.): 25 µg/mL
MIC ([7]; C. diversus, 10 h cultivation at 37° C.): 50 µg/mL
MIC ([8]; M. catarrhalis, 10 h cultivation at 37° C.): 12.5 µg/mL
MIC ([9]; P. mirabilis, 10 h cultivation at 37° C.): 50 µg/mL
MIC ([10]; P. vulgaris, 10 h cultivation at 37° C.): 12.5 µg/mL
MIC ([11]; S. marcescens, 10 h cultivation at 37° C.): 12.5 µg/mL

PRT1298 (PINTCIQNPCQHGGTCHLSDSHKDGFSCSCPLGFEGQRCE; listed as Homo sapiens)
MIC [1]: 12.5 µg/mL
MIC against E. coli BL21 [2, 13]: 50 µg/mL
MIC against P. aeruginosa [3, 14]: 12.5 µg/mL
MIC against K. pneumonia [4, 15]: 50 µg/mL
MIC against E. cloacae [5, 16]: 25 µg/mL
MIC against A. hydrophila [6, 17]: 12.5 µg/mL
MIC against C. diversus [7, 18]: 50 µg/mL
MIC against M. catarrhalis [8, 19]: 12.5 µg/mL
MIC against P. mirabilis [9, 20]: 50 µg/mL
MIC against P. vulgaris [10, 21]: 12.5 µg/mL
MIC against S. marcescens [11, 22]: 25 µg/mL

PRT1211 (LSPYCKDEPCKNGGTCFDSLDGAVCQCDSGFRGERCQ; listed as Homo sapiens)
MIC [1]: 50 µg/mL
MIC against E. coli BL21 [2, 13]: 25 µg/mL
MIC against P. aeruginosa [3, 14]: 12.5 µg/mL
MIC against K. pneumonia [4, 15]: 25 µg/mL
MIC against E. cloacae [5, 16]: 50 µg/mL
MIC against A. hydrophila [6, 17]: 25 µg/mL
MIC against C. diversus [7, 18]: 12.5 µg/mL
MIC against M. catarrhalis [8, 19]: 25 µg/mL
MIC against P. mirabilis [9, 20]: 50 µg/mL
MIC against P. vulgaris [10, 21]: 25 µg/mL
MIC against S. marcescens [11, 22]: 12.5 µg/mL

PRT518 (CACPLNIPSNNFSPTCHLDRSLGLICDGCPVGYTGPRCERCAEGYFGQPSVPGGSCQP; listed as Homo sapiens)
MIC [1]: 50 µg/mL
MIC against E. coli BL21 [2, 12]: 25 µg/mL
MIC against P. aeruginosa [3, 12]: 12.5 µg/mL
MIC against K. pneumonia [4, 12]: 25 µg/mL
MIC against E. cloacae [5, 12]: 50 µg/mL
MIC against A. hydrophila [6, 12]: 25 µg/mL
MIC against C. diversus [7, 12]: 12.5 µg/mL
MIC against M. catarrhalis [8, 12]: 25 µg/mL
MIC against P. mirabilis [9, 12]: 12.5 µg/mL
MIC against P. vulgaris [10, 12]: 25 µg/mL
MIC against S. marcescens [11, 12]: 12.5 µg/mL

PRT878 (ADPLCAPARNPCANGGLCTVLAPGEVGCDCSHTGFGGKFCS; listed as Homo sapiens)
MIC [1]: 50 µg/mL
MIC (μg/mL) E. coli BL21 ([2]; E. coli BL21, 10 h cultivation at 37° C., 5×10^5 CFU/mL): 25 µg/mL
MIC (μg/mL) P. aeruginosa ([3]; P. aeruginosa, 10 h cultivation at 37° C., 5×10^5 CFU/mL): 12.5 µg/mL
MIC (μg/mL) K. pneumonia ([4]; K. pneumonia, 10 h cultivation at 37° C., 5×10^5 CFU/mL): 50 µg/mL
MIC (μg/mL) E. cloacae ([5]; E. cloacae, 10 h cultivation at 37° C., 5×10^5 CFU/mL): 12.5 µg/mL
MIC (μg/mL) A. hydrophila ([6]; A. hydrophila, 10 h cultivation at 37° C., 5×10^5 CFU/mL): 50 µg/mL
MIC (μg/mL) C. diversus ([7]; C. diversus, 10 h cultivation at 37° C., 5×10^5 CFU/mL): 12.5 µg/mL
MIC (μg/mL) M. catarrhalis ([8]; M. catarrhalis, 10 h cultivation at 37° C., 5×10^5 CFU/mL): 25 µg/mL
MIC (μg/mL) P. mirabilis ([9]; P. mirabilis, 10 h cultivation at 37° C., 5×10^5 CFU/mL): 50 µg/mL
MIC (μg/mL) P. vulgaris ([10]; P. vulgaris, 10 h cultivation at 37° C., 5×10^5 CFU/mL): 25 µg/mL
MIC (μg/mL) S. marcescens ([11]; S. marcescens, 10 h cultivation at 37° C., 5×10^5 CFU/mL): 12.5 µg/mL

PRT1278 (DIDECRLNNGGCDHICRNTVGSFECSCKKGYKLLINERNCQ; listed as Homo sapiens)
MIC [1]: 25 µg/mL
MIC against E. coli BL21 [2, 13]: 12.5 µg/mL
MIC against P. aeruginosa [3, 14]: 12.5 µg/mL
MIC against K. pneumonia [4, 15]: 12.5 µg/mL
MIC against E. cloacae [5, 16]: 12.5 µg/mL
MIC against A. hydrophila [6, 17]: 12.5 µg/mL
MIC against C. diversus [7, 18]: 12.5 µg/mL
MIC against M. catarrhalis [8, 19]: 12.5 µg/mL
MIC against P. mirabilis [9, 20]: 12.5 µg/mL
MIC against P. vulgaris [10, 21]: 12.5 µg/mL
MIC against S. marcescens [11, 22]: 12.5 µg/mL
